Test results taken from the supplement of paper PMC10307832.

Key:
Experiment in all cases: relative viability (nuclei count vs DMSO), 5 days (fraction); higher = more cells survive
[1] = compound: COc1cc2nc(N3CCCN(C)CC3)nc(NC3CCN(Cc4ccccc4)CC3)c2cc1OC + CC1(C)CCC(c2ccc(Cl)cc2)=C(CN2CCN(c3ccc(C(=O)NS(=O)(=O)c4ccc(N[C@H](CCN5CCOCC5)CSc5ccccc5)c(S(=O)(=O)C(F)(F)F)c4)cc3)CC2)C1 [Navitoclax] (partner 0.5 µM)
How it was run: (§1)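 Five library-drug doses in √10 steps were combined with a fixed anchor-drug dose, or a single drug was given alone, by pin tool to lung cancer cell lines in 1536-well plates the day after seeding. Nuclei were stained and counted after 5 days. Relative viability is the nuclei count in treated wells over that in vehicle wells, taken as the median of duplicate plates.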

[2] = compound: COc1cc2nc(N3CCCN(C)CC3)nc(NC3CCN(Cc4ccccc4)CC3)c2cc1OC + N=C(N)NC(=N)NCCc1ccccc1 [Phenformin] (partner 250 µM)
How it was run: as §1

AZD6482 + Luminespib = compound: Cc1cc([C@@H](C)Nc2ccccc2C(=O)O)c2nc(N3CCOCC3)cc(=O)n2c1 [AZD6482] + CCNC(=O)c1noc(-c2cc(C(C)C)c(O)cc2O)c1-c1ccc(CN2CCOCC2)cc1 [Luminespib] (partner 0.01 µM)
How it was run: as §1

AZD6482 + Alpelisib = compound: Cc1cc([C@@H](C)Nc2ccccc2C(=O)O)c2nc(N3CCOCC3)cc(=O)n2c1 [AZD6482] + Cc1nc(NC(=O)N2CCC[C@H]2C(N)=O)sc1-c1ccnc(C(C)(C)C(F)(F)F)c1 [Alpelisib] (partner 2 µM)
How it was run: as §1

| Cell Line | relative viability ([1]; first compound 0.2 µM) | relative viability ([1]; first compound 2 µM) | relative viability ([1]; first compound 6.325 µM) | relative viability ([2]; first compound 0.2 µM) | relative viability ([2]; first compound 0.6325 µM) | relative viability ([2]; first compound 2 µM) | relative viability ([2]; first compound 6.325 µM) | relative viability (AZD6482 + Luminespib; first compound 0.08 µM) | relative viability (AZD6482 + Luminespib; first compound 0.253 µM) | relative viability (AZD6482 + Luminespib; first compound 0.8 µM) | relative viability (AZD6482 + Luminespib; first compound 8 µM) | relative viability (AZD6482 + Alpelisib; first compound 0.08 µM) | relative viability (AZD6482 + Alpelisib; first compound 0.253 µM) | relative viability (AZD6482 + Alpelisib; first compound 0.8 µM) | relative viability (AZD6482 + Alpelisib; first compound 2.53 µM) | relative viability (AZD6482 + Alpelisib; first compound 8 µM) | relative viability ([1]; first compound 0.6325 µM) | relative viability (AZD6482 + Luminespib; first compound 2.53 µM) |
| --- | --- | --- | --- | --- | --- | --- | --- | --- | --- | --- | --- | --- | --- | --- | --- | --- | --- | --- |
| NCI-H441 | 0.591 | 0.831 | 0.277 | 0.821 | 0.859 | 1.03 | 0.85 | 0.389 | 0.375 | 0.3 | 0.262 | 0.65 | 0.834 | 0.592 | 0.532 | 0.66 |  |  |
| NCI-H460 | 1.16 | 1.17 | 0.754 | 0.501 | 0.492 | 0.478 | 0.484 | 0.0355 | 0.0327 | 0.0426 | 0.0378 | 0.206 | 0.352 | 0.263 | 0.13 | 0.18 | 1.13 | 0.0315 |
| NCI-H520 | 1.21 | 0.989 | 0.867 | 0.558 | 0.7 | 0.499 | 0.252 | 0.208 | 0.281 | 0.199 | 0.211 | 0.381 | 0.287 | 0.263 |  | 0.353 | 0.89 | 0.206 |
| NCI-H596 | 1.03 | 0.949 | 0.821 | 0.724 | 0.756 | 0.696 | 0.798 | 0.92 | 0.815 | 0.848 | 0.801 | 0.449 | 0.437 | 0.445 | 0.44 | 0.388 | 0.851 | 0.812 |
| NCI-H647 | 1.07 | 1.32 | 0.964 | 0.586 | 0.727 | 0.673 | 0.366 | 0.167 | 0.121 | 0.147 | 0.146 | 0.622 |  | 0.778 | 0.459 | 0.526 | 1.18 | 0.193 |
| NCI-H727 | 0.495 | 0.381 | 0.225 | 0.478 | 0.415 | 0.447 | 0.348 | 0.245 | 0.348 | 0.786 | 0.345 | 0.398 | 0.535 | 0.46 |  | 0.493 | 0.517 | 0.292 |
| NCI-H838 | 1.17 | 1.27 | 1.08 | 0.769 | 0.776 | 0.576 | 0.502 | 0.246 | 0.355 | 0.265 | 0.332 | 0.8 | 0.98 | 0.881 | 0.679 | 0.771 | 1.13 | 0.193 |
| NCI-H1355 | 0.918 | 1.01 | 0.921 | 0.485 | 0.46 | 0.508 | 0.463 | 0.53 | 0.556 | 0.702 | 0.52 | 0.523 | 0.621 | 0.6 | 0.452 | 0.592 | 0.947 | 0.422 |
| NCI-H1395 | 1.18 | 1.17 | 1.05 | 0.461 | 0.451 | 0.433 | 0.397 | 0.541 | 0.601 | 0.514 | 0.482 | 0.696 | 0.573 | 0.732 | 0.5 | 0.587 | 1.32 | 0.376 |
| NCI-H1437 | 1.12 | 1.17 | 1.04 | 0.261 | 0.329 | 0.326 | 0.297 | 1.16 | 1.2 | 1.14 | 1.15 | 0.819 | 0.842 | 0.809 | 0.641 | 0.741 | 1.04 | 0.969 |
| NCI-H1651 | 1.14 | 1.42 | 1.03 | 0.351 | 0.33 | 0.329 | 0.318 | 0.779 | 0.805 | 0.773 | 0.753 | 0.791 | 0.778 | 0.712 | 0.42 | 0.777 | 1.02 | 0.812 |
| NCI-H1666 | 0.934 | 1.03 | 0.642 | 0.545 | 0.574 | 0.542 | 0.505 | 1 | 0.942 | 1.06 | 1.21 | 0.609 | 0.748 | 0.751 | 0.64 | 0.738 | 1.16 | 0.876 |
| NCI-H1734 | 0.883 | 0.83 | 0.599 | 0.383 | 0.383 | 0.389 | 0.346 | 0.194 | 0.167 | 0.164 | 0.205 | 0.416 | 0.444 | 0.431 | 0.338 | 0.521 | 0.757 | 0.163 |
| NCI-H1755 | 0.995 | 0.951 | 0.968 | 0.604 | 0.628 | 0.58 | 0.574 | 0.24 | 0.488 | 0.411 | 0.218 | 0.695 | 0.719 | 0.547 | 0.336 | 0.435 | 0.972 | 0.322 |
| NCI-H1792 | 0.665 | 0.66 | 0.629 |  | 0.257 | 0.467 | 0.268 | 0.373 | 0.392 | 0.458 | 0.353 | 0.516 | 0.518 | 0.67 | 0.393 | 0.359 | 0.639 | 0.19 |
| NCI-H1793 | 0.49 | 0.492 | 0.457 | 0.372 | 0.385 | 0.404 | 0.364 | 0.151 | 0.164 | 0.165 | 0.167 | 0.537 | 0.519 | 0.48 |  | 0.406 | 0.489 | 0.134 |
| NCI-H1915 | 0.805 | 0.843 | 0.797 | 0.371 | 0.351 | 0.374 | 0.364 | 0.697 | 0.698 | 0.824 | 0.778 | 1.04 | 1.02 | 1.1 | 0.958 | 1.05 | 0.772 | 0.696 |
| NCI-H1944 | 1.1 |  | 0.982 | 0.21 | 0.221 | 0.201 | 0.203 | 0.775 | 0.621 | 0.858 | 0.589 | 0.6 | 0.518 | 0.6 | 0.421 | 0.51 | 1.02 | 0.546 |
